In patent US20050261331A1, “Substituted pyrrolopyridines” (priority 2002, published 2005) one finds melting point and IC50 data, which are given here for six compounds.

Where a name gives a salt, the structure may show the parent alone.

Test system in the first data set: not given
Assay: not given
Settings: not given
`Brc1cnc2[nH]c(-c3ccccc3)c(-c3ccco3)c2c1` [Example 12, 5-Bromo-3-furan-2-yl-2-phenyl-1-H-pyrrolo[2,3-b]pyridine]: the melting point (commonly the temperature of the solid-liquid transition) is 105 to 107 °C. Consider `CC(=O)NCc1ccc(-c2c(-c3ccccc3)[nH]c3ncc(Br)cc23)o1` [Example 13, N-[5-(5-Bromo-2-phenyl-1-H-pyrrolo[2,3-b]pyridin-3-yl)-furan-2-ylmethyl]-acetamide], for which the melting point was in the range of 176 to 176.5 °C.

For the next data set, the target named is T1, recombinant human Itk kinase domain fused with GST (Homo sapiens, UniProt Q08881).
T1 construct: recombinant human Itk kinase domain fused with GST; made in house; host or cells: High Five insect cells
T1 sequence (Q08881 363-615 limits assumed): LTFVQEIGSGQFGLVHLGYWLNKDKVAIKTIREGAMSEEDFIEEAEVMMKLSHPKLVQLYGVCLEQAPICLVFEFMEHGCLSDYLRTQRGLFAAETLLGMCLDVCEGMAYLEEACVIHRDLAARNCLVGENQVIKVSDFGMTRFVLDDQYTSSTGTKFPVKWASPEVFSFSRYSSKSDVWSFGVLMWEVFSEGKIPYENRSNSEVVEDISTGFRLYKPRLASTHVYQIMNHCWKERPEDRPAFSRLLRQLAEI
The data set can be described thus: Itk LANCE TRF Assay. The conditions noted are these: 160 ng/well Itk, 2 μM peptide substrate, 50 μM ATP, 50 minutes RT; read-out: Inhibition of Kinase Itk (IC50 μM). The class given is biochemical. As for the experimental part: The Itk kinase assay utilized recombinant human Itk kinase domain fused with GST (Glutathione S-Transferase). The protein was expressed in High five insect cells, purified in one step on an affinity chromatography glutathione column and stored in 50 mM Tris/HCl (pH 7.6), 150 mM NaCl, 5% (w/v) mannitol, 1 mM DTT, 30% glycerol at −70° C. The kinase substrate used in the assay was a biotinylated peptide derived from the Src-optimal substrate (Nair et al, J. Med. Chem., 38: 4276, 1995; biotin-AEEEIYGEFEAKKKK).
The assay additions were as follows: Test compounds (or controls; 1 μL in 100% DMSO) were added to black 96-well flat-bottomed plates (Greiner 655076) followed by 20 μL Itk in assay buffer and the reaction was started by adding 20 μL ATP and peptide substrate in assay buffer. The assay buffer constitution during phosphorylation was: 50 mM HEPES (pH 6.8), 10 mM MgCl2, 0.015% Brij 35, 1 mM DTT, 10% glycerol, 160 ng/well Itk, 2 μM peptide substrate and 50 μM ATP. The assay was stopped after 50 minutes (RT) by adding 150 μL ice-cold Stop solution (50 mM Tris/HCl, pH 7.5, 10 mM EDTA, 0.9% NaCl and 0.1% BSA) together with LANCE reagents (2 nM PT66-Eu^3+, Wallac AD0069 and 5 μg/ml Streptavidin-APC, Wallac AD0059. Both concentrations were final in stopped assay solution). The plates were measured on a Wallac 1420 Victor 2 instrument with TRF settings after 1 h incubation, and the ratio (665 signal/615 signal)*10000 was used to calculate the inhibition values. IC50 values were determined using XLfit.
On the technique in general: In TR-FRET formats the signal depends on donor and acceptor labels being close together.
For `CN(C)CCCOc1ccc(-c2c(-c3ccco3)[nH]c3ncc(Br)cc23)cc1` [Example 5, 3-{4-[S-Bromo-2-(2-furyl)-1H-pyrrolo[2,3-b]pyridin-3-yl]phenoxy}-N,N-dimethylpropan-1-amine trifluoroacetate], the IC50 (commonly the concentration at which inhibition is half-maximal) worked out at 0.01 µM. Same read-out and setting: the result for `CC(=O)NCc1ccc(-c2c(-c3ccccc3)[nH]c3ncc(Br)cc23)o1` [Example 13, N-[5-(5-Bromo-2-phenyl-1-H-pyrrolo[2,3-b]pyridin-3-yl)-furan-2-ylmethyl]-acetamide] reads 0.03 µM; that for `N#Cc1cnc2[nH]c(-c3ccccc3)c(-c3ccc(N4CCOCC4)cc3)c2c1` [Example 44, 3-(4-Morpholin-4-ylphenyl)-2-phenyl-1H-pyrrolo[2,3-b]pyridine-5-carbonitrile], 0.44 µM. Still for that read-out and setting: the result for `Cc1c(Br)cnc2[nH]c(-c3ccc(OCCCN(C)C)cc3)c(-c3cccnc3)c12` [Example 55, {3-[4-(5-Bromo-4-methyl-3-pyridin-3-yl-1H-pyrrolo[2,3-b]pyridin-2-yl)phenoxy]propyl}dimethylamine] reads 0.01 µM. On the same count and under the same terms, under `CN(C)CCCN(C)c1ccc(-c2[nH]c3ncc(Cl)cc3c2-c2cncnc2)cn1` [Example 61, N-[5-(5-Chloro-3-pyrimidin-5-yl-1H-pyrrolo[2,3-b]pyridin-2-yl]-N,N′,N′-trimethylpropane-1,3-diaminetrihydrochloride] stands 0.04 µM.
